Assay results from patent US6187296A, “Lysine decarboxylase inhibitors for the prevention and treatment of periodontal disease” (priority 2000, dated 2001).

Columns and labels:
[1] = system: lysine decarboxylase; details: Mycoplasma dispar; cited from earlier work
[2] = target: T1, lysine decarboxylase (Selenomonas ruminantium, UniProt O50657); details: cited from earlier work
T1 construct: host or cells: Selenomonas ruminantium

[3] = target: T2, lysine decarboxylase (Escherichia coli, UniProt P0A9H3); details: cited from earlier work
T2 construct: host or cells: Escherichia coli

[4] = system: HL60 cells; type: cell-based; details: FIG. 3; control 0.22 mM lysine; 0.72 mM lysine and/or 0.42 mM EACA
Protocol: Graphs show the percent growth inhibition after 96 h (2A) and the percent lysine remaining (2B) after 40 h incubation (obtained as described in legend to FIG. 1).

[5] = target: lysine decarboxylase (Eikenella corrodens, UniProt Q9Z4R7); assay: Cadaverine production by E. corrodens extract as a function of initial lysine concentration; type: biochemical; details: 0.42 mM EACA
Protocol: FIGS. 4A and 4B are graphs showing cadaverine production as a function of initial lysine concentration in the presence and absence of […] ε-amino-n-caproic acid (EACA). […] Initial rate of cadaverine produced (from 0.3 μg E. corrodens extract protein/ml) graphed against the initial lysine concentration. A. Cadaverine produced after 20 min: Enzyme only: .circle-solid.-.circle-solid.; with 0.42 ImM EACA .smallcircle. . . . .smallcircle.. B. Enlarged inset, cadaverine produced after 16 h (limited substrate): Enzyme only .circle-solid.-.circle-solid.; with 0.42 mM EACA .smallcircle. . . . .smallcircle..
The results of FIG. 1 were obtained when 0.1 ml of E. corrodens extract (10 μg protein/ml), or plaque extract (100 μg protein/ml) was added to 0.5×10^5 HL60 cells or 2×10^5 HeLa cells in 0.5 ml growth medium in 48-well plates (Costar, Cambridge, Mass.). The cells were incubated for 96 h at 37° C. in 5% CO2 in air, examined visually and counted on a Coulter Counter (Coulter Electronics Hialeah, Fla.). […] The samples were incubated at 43° C. for 5.0 min, vortexed with 2.0 ml toluene for 20 sec, centrifuged at 2,000 rpm for 5 min and the absorbance of the toluene layer read at 340 nm. From a standard curve, the cadaverine produced was measured and subtracted from the amount of free lysine initially in the medium plus extract after 16 h or 40 h. […]

[6] = system: lysine decarboxylase; assay: Lysine decarboxylase activity in Mycoplasma dispar; type: biochemical; details: half of the DL-form inhibiting values
[7] = target: T1, lysine decarboxylase; assay: Lysine decarboxylase activity in Selenomonas ruminantium; type: biochemical; details: half of the DL-form inhibiting values, read-out: Equivalent L inhibitory values

T1 sequence (O50657 whole entry): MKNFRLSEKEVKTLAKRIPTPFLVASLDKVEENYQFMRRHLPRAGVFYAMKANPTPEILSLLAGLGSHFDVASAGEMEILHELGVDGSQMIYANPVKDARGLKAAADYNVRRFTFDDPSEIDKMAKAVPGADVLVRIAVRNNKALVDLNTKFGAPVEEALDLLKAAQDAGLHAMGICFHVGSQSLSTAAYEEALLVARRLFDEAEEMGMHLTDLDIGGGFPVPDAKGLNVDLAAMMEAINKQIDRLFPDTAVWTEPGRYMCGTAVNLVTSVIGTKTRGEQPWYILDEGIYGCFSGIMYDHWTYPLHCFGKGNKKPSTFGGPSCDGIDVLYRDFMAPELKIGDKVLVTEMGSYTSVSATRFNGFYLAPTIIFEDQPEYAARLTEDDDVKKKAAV
lysine decarboxylase (Eikenella corrodens, UniProt Q9Z4R7), sequence (Q9Z4R7 entry or part of it): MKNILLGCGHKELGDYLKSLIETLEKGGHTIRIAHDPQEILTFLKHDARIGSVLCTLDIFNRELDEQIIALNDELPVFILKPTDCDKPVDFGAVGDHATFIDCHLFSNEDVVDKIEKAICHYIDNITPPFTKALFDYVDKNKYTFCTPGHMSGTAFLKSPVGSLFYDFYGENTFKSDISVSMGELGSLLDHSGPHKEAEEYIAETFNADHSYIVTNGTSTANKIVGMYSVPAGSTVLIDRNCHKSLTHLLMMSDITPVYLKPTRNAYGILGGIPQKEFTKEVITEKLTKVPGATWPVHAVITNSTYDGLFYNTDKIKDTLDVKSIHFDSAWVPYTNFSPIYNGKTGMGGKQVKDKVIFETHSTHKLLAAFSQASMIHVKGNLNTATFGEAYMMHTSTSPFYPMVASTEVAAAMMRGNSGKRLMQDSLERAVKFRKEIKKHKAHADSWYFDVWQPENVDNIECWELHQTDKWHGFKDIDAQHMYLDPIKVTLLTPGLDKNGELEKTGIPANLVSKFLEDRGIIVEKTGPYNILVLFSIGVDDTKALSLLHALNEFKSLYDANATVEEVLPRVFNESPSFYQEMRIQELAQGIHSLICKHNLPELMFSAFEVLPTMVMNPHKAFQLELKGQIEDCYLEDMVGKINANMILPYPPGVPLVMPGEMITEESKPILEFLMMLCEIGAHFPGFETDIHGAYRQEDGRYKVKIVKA
T2 sequence (P0A9H3 whole entry): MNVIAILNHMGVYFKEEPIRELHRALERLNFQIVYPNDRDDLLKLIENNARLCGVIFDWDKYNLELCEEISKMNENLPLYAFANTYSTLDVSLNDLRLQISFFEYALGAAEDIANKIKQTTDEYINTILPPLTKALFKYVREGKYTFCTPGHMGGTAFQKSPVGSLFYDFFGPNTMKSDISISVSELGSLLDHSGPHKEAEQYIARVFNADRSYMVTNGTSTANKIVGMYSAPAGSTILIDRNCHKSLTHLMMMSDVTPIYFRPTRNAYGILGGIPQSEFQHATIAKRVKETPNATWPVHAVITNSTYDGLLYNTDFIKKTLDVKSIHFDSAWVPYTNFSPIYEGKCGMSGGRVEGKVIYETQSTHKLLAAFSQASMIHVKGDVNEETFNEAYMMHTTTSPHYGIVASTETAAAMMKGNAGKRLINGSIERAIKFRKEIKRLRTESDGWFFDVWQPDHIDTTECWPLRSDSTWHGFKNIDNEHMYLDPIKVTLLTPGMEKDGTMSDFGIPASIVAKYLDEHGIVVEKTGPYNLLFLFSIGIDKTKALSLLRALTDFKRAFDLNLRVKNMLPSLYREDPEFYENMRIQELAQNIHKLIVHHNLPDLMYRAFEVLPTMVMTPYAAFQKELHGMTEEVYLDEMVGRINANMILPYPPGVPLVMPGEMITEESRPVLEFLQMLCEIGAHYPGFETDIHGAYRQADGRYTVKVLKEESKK

Compound	Effect on lysine decarboxylase activity [1]	Effect on lysine decarboxylase activity [2]	Effect on growth inhibiting activity of E. corrodens extract [4]	also measured
NCCCC(N)(C(=O)O)C(F)F (racemic) [DFMO]	no effect	no effect		
NCCCCCC(=O)O [EACA, ε-amino-n-caproic acid]			increased the growth inhibition	Effect on lysine decarboxylase from E. coli [3]: inhibits; Effect on the E. corrodens enzyme at high lysine concentrations ([5]; high lysine concentrations): inhibits the enzyme; Effect on the E. corrodens enzyme at low lysine concentrations ([5]; lysine 0.22-0.72 mM as in growth media): activates the enzyme
N=C(N)NCCCC(N)(C(=O)O)C(F)F (racemic) [DFMR]	no effect	no effect		
NCCCC[C@](N)(C(=O)O)C(F)F [L-DFML]				Equivalent L inhibitory values [6]: 0.05 to 0.50 mM; IC100 [7]: 50 to 500 µM
NCCCC[C@H](N)C(=O)O [lysine]			decreased the growth inhibiting activity	
